Earlier results, collected in patent US20090274776A1, “Method for the Diagnosis and Treatment of Conditions Involving Aberrant Erythrocyte Potassium Levels” (THE REGENTS OF THE UNIVERSITY OF MICHIGAN, priority 2006, published 2009).

Legend:
[1] = system: RBC; details: RBC treated with the substance; by activation of IKCa
[2] = system: endothelium-derived hyperpolarizing factor (EDHF); details: in the presence of apamin
[3] = molecular target: T1, KCa in RBC (Homo sapiens, UniProt O15554); details: red blood cells
T1 construct: host or cells: red blood cells (endogenous channel)

| Structure (SMILES) | K+ efflux in RBC [1] | EDHF relaxation [2] | effect on KCa in RBC [3] |
| --- | --- | --- | --- |
| Nc1nc2c(nc(Br)n2[C@@H]2O[C@@H]3COP(=O)(O)O[C@H]3[C@H]2O)c(=O)[nH]1 [8Br-cGMP] | increased | – | – |
| OC1(c2cccc(Cl)c2)C2=NCCCN2c2ccccc21 (stereo not shown) [Ciclazindol] | – | abolishes | inhibits |
| CC1(C)Oc2ccc(C#N)cc2C(N2CCCC2=O)C1O (stereo not shown) [cromakalim] | – | – | opens |
